Data as given in patent publication US9717665B2, “Tooth desensitizing oral care compositions, devices, and methods” (The Procter & Gamble Company, priority 2013, dated 2017).

Tested on: human 3rd molar coronal dentin
Experiment: Dentinal flow rate measurement (Pashley-like flow cell)
Conditions: repeated deposition
Method: Volumetric flow rates through cross-sections of human 3rd molar coronal dentin are measured before and after treatment using a flow cell apparatus (FIG. 6). Twenty two coronal dentin sections of human molars are obtained by cross sectional cutting with a diamond blade saw to a thickness between 0.80 and 1.00 mm. The sections resemble disks due to the circular nature of molars. The center of the disk is dentin 90 with a thin ring of enamel around the circumference (FIG. 6). The cut dentin disks are then placed in 6.0% citric acid for two minutes followed by sonication in water and subsequent rinsing to remove the smear layer created by the cutting process. The removal of the smear layer with citric acid is an effective and well known technique to produce open dentinal tubules representative of sensitive dentin found in-vivo. […]
Each dentin disk section is centered over the opening with flat washers 110 and bushing 120 on each side, making sure that the section spanned the opening with at least 1 mm overlap around the entire perimeter. […] The liquid velocity is recorded by timing the movement of the bubble within the supply line. […] Using a digital stop watch, elapsed times are recorded over 4 equidistant points along the ruler to establish the average rate the bubble travels and to ensure the velocity is constant. […]

Q: How did the “Flow rates through dentin” value turn out when `O=C(O)C(=O)O` [oxalate] was run?
A: significantly reduce flow rates through dentin
